In ChEMBL document CHEMBL5291721, “A preclinical secondary pharmacology resource illuminates target-adverse drug reaction associations of marketed drugs” (Nat Commun, 2023) one finds AC50 data, which are given here for 25 compounds.

Some targets named below: Histamine H2 receptor (Homo sapiens, UniProt P25021); Substance-P receptor (Homo sapiens, UniProt P25103); D(1B) dopamine receptor (Homo sapiens, UniProt P21918).
The target of a further experiment is Histamine H1 receptor (Homo sapiens, UniProt P35367). The experiment is classed as functional, cell-based.
Chain of Histamine H1 receptor (P35367 whole entry): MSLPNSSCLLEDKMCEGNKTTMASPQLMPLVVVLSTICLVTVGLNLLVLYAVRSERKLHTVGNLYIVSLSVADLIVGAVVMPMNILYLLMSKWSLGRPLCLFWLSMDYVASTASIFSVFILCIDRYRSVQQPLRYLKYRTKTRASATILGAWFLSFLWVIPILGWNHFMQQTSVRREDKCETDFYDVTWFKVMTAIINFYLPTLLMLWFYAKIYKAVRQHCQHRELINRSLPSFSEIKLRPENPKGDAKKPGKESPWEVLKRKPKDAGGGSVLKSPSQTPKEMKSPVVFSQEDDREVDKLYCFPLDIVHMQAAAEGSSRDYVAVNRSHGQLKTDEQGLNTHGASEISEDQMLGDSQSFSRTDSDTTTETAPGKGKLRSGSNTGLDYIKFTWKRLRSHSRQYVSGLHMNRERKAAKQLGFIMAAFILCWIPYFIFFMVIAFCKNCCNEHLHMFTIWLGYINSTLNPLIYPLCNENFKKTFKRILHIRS
The target in experiment [1] is T1, Endothelin receptor type B (Homo sapiens, UniProt P24530).
T1 sequence (P24530 whole entry): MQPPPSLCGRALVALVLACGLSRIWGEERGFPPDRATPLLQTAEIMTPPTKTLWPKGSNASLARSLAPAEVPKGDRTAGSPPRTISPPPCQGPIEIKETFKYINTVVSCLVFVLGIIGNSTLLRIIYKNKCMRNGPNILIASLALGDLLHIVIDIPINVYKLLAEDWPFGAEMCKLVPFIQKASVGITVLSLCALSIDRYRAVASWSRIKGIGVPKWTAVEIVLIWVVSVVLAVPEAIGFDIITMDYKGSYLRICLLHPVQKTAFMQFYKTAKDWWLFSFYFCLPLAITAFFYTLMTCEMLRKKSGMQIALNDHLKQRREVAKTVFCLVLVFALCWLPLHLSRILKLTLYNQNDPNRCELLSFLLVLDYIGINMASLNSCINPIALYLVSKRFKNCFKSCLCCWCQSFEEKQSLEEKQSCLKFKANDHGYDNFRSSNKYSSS

Experiment [2] has as its target 5-hydroxytryptamine receptor 2B (Homo sapiens, UniProt P41595).
The target in experiment [3] is Neurotensin receptor type 1 (Homo sapiens, UniProt P30989).
Experiment [4] has as its target T2, Alpha-2A adrenergic receptor (Homo sapiens, UniProt P08913).
T2 sequence (P08913 whole entry): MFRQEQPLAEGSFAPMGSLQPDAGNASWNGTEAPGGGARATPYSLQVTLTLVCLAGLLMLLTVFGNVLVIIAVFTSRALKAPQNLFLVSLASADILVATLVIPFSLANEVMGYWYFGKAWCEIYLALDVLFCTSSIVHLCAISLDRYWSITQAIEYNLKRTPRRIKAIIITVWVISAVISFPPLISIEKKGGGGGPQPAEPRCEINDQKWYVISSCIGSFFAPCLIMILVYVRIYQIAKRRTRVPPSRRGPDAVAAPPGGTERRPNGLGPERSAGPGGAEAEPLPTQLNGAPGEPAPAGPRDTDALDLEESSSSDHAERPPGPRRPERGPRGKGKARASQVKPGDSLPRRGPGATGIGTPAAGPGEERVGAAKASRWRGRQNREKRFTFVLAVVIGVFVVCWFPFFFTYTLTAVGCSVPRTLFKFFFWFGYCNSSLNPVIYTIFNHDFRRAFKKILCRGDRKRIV

In experiment [5] the target is T3, Peroxisome proliferator-activated receptor gamma (Homo sapiens, UniProt P37231).
T3 sequence (P37231 whole entry): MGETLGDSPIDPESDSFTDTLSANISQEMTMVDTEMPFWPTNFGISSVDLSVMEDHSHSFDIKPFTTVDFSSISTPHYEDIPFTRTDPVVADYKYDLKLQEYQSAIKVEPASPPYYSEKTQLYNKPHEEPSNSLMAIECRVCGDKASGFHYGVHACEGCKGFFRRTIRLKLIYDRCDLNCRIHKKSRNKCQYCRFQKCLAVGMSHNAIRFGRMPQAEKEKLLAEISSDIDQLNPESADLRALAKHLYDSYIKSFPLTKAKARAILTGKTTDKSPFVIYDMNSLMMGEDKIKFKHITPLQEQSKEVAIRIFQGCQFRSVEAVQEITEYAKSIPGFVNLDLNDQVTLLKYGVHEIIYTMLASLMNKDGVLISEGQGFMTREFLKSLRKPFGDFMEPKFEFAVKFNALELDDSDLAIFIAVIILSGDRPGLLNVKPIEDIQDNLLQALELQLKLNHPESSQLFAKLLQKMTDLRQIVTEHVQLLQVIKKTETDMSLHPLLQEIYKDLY
It counts as functional.

Experiment [6] addresses T4, Alpha-1A adrenergic receptor (Homo sapiens, UniProt P35348).
T4 sequence (P35348 whole entry): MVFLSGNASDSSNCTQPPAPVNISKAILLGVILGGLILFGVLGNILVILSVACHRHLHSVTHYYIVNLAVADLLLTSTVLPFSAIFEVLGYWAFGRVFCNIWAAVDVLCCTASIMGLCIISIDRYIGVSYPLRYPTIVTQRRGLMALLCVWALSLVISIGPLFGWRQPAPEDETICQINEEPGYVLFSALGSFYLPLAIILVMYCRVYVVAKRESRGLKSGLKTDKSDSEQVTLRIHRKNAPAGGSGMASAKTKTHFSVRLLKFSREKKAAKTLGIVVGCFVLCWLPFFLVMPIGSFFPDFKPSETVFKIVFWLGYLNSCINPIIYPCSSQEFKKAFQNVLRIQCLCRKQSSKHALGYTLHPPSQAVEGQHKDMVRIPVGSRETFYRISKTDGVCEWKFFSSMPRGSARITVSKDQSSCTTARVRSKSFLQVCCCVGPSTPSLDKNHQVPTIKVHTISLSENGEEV

In experiment [7] the target is Voltage-dependent L-type calcium channel subunit alpha-1C (Homo sapiens, UniProt Q13936). The experiment is classed as functional, cell-based.
Chain of Voltage-dependent L-type calcium channel subunit alpha-1C (Q13936 whole entry): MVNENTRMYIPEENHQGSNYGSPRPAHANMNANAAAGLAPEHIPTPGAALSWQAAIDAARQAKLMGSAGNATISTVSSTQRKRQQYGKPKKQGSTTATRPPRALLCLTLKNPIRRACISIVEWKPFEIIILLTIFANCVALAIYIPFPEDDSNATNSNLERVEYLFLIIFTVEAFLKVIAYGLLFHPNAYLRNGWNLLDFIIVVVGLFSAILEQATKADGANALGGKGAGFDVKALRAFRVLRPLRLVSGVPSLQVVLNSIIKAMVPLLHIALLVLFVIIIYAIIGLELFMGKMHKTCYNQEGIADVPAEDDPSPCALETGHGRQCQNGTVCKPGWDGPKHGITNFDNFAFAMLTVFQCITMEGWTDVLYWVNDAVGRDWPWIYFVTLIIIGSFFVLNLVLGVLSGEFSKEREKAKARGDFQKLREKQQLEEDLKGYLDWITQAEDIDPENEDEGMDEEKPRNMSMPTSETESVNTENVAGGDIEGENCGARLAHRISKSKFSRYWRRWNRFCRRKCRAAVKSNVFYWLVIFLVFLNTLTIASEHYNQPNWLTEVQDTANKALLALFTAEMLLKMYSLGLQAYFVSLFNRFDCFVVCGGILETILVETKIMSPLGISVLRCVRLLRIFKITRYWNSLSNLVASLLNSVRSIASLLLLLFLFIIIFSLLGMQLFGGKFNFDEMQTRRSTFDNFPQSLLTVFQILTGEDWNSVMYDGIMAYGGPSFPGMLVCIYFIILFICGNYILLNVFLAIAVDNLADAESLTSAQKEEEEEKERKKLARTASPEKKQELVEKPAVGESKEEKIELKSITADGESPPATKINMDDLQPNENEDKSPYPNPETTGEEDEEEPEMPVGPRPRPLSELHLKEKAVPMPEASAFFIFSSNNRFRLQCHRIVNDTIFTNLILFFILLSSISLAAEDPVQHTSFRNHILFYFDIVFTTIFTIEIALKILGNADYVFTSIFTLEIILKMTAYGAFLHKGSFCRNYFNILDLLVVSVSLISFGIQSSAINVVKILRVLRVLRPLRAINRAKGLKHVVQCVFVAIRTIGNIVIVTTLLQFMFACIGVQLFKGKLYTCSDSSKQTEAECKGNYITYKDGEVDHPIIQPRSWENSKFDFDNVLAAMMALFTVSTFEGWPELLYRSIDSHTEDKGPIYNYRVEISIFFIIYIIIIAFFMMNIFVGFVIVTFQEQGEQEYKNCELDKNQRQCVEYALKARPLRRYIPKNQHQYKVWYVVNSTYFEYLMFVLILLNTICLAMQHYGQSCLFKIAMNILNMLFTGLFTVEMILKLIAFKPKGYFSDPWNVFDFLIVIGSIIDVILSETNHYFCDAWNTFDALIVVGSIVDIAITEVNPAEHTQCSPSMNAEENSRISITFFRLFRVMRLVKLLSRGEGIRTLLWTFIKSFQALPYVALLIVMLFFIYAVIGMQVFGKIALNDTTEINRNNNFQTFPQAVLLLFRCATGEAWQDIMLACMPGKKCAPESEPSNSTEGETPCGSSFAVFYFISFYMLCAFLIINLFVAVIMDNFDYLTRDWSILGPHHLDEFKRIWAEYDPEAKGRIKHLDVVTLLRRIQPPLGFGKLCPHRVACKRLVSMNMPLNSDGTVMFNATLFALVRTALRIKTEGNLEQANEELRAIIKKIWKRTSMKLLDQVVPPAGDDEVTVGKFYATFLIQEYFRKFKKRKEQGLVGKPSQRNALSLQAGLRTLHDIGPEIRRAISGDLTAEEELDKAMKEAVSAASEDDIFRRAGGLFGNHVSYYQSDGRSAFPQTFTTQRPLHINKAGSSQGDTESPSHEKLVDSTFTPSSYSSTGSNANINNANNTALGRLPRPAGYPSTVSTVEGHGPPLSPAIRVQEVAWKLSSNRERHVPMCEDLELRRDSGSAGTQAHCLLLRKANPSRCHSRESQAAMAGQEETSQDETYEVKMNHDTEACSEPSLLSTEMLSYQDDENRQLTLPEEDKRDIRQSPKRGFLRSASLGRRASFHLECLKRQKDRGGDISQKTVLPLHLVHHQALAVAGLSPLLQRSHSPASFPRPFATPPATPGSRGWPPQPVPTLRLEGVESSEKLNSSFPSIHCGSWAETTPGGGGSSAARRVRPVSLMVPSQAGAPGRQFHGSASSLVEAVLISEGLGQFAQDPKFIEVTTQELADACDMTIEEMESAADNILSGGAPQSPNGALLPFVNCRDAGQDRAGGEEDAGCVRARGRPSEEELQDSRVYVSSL
In experiment [8] the target is T5, Muscarinic acetylcholine receptor M4 (Homo sapiens, UniProt P08173).
T5 sequence (P08173 whole entry): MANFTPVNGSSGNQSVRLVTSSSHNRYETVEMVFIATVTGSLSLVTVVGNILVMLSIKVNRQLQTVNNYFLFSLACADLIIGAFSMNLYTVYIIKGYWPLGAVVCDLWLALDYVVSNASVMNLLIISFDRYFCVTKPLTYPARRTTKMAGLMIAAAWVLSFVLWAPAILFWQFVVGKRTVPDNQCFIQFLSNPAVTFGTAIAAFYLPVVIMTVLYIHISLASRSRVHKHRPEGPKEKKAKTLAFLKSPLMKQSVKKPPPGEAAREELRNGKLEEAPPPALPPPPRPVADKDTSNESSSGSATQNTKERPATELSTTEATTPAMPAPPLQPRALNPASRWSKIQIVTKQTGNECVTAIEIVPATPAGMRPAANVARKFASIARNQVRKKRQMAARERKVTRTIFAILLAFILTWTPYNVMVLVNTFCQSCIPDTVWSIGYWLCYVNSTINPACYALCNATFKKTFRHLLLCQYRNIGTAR

In experiment [9] the target is Rod cGMP-specific 3',5'-cyclic phosphodiesterase subunit alpha (Homo sapiens, UniProt P16499). It counts as functional.
Chain of Rod cGMP-specific 3',5'-cyclic phosphodiesterase subunit alpha (P16499 whole entry): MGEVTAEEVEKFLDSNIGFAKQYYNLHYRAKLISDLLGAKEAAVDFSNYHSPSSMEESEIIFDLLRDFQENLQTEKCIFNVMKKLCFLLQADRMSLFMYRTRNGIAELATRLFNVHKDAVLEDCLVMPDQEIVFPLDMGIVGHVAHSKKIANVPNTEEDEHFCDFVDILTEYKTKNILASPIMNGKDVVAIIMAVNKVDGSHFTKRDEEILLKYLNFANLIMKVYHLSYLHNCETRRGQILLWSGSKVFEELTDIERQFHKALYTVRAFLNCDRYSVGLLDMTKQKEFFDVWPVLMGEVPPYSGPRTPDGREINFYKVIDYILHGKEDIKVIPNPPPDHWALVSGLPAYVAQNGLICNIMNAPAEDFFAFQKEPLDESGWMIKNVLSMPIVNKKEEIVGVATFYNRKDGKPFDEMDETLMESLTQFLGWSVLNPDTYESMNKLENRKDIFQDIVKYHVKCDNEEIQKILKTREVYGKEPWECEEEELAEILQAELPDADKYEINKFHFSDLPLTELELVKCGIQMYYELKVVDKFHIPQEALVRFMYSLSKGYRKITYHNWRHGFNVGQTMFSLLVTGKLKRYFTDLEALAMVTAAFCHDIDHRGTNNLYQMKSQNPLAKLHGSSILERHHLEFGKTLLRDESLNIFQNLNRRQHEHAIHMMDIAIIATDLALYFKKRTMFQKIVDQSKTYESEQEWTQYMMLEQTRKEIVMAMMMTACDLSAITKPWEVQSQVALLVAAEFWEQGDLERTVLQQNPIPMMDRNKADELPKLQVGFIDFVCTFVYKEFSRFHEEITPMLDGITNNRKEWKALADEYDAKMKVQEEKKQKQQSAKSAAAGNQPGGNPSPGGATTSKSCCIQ
Further: assay procedure not described here.

Chain of D(1B) dopamine receptor (P21918 whole entry): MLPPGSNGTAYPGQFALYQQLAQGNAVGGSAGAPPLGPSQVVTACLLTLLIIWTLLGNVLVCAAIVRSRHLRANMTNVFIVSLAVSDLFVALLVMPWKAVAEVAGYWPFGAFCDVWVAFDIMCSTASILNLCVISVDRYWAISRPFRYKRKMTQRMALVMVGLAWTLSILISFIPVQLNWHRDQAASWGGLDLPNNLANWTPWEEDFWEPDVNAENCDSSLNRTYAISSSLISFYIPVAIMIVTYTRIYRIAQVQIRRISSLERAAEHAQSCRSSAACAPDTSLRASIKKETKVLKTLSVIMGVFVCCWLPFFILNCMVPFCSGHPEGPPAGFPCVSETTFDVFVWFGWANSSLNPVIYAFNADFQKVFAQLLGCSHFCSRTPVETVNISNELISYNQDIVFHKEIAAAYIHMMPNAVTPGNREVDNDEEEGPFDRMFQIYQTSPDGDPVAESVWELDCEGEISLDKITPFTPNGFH
Chain of Substance-P receptor (P25103 whole entry): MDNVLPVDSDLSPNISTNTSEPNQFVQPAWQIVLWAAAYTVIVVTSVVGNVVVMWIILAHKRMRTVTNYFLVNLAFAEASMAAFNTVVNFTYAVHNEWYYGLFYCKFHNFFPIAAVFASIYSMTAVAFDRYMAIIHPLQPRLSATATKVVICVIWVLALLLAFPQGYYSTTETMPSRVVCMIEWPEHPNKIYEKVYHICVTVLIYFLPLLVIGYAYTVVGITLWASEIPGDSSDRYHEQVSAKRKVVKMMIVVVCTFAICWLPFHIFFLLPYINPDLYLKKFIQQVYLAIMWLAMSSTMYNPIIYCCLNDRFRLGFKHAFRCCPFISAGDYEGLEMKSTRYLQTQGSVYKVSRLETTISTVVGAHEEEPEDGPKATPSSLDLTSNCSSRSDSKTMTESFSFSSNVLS
Chain of Histamine H2 receptor (P25021 whole entry): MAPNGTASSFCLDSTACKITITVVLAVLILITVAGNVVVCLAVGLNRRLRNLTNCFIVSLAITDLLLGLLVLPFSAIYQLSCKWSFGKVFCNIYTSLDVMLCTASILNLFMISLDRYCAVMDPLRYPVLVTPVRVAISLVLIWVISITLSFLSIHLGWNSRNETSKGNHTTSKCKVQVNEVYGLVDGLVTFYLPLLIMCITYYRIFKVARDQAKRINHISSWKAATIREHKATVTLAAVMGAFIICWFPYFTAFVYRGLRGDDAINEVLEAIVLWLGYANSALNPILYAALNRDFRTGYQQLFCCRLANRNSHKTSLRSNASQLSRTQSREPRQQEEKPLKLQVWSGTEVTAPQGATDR

`COc1cc(C(=O)OCc2cccc(COC(=O)c3cc(OC)c(OC)c(OC)c3)n2)cc(OC)c1OC` [PIROZADIL] displayed an AC50 on Histamine H1 receptor of over 30 µM.

Regarding `O=c1c(O)c(-c2ccc(O)c(O)c2)oc2cc(O)cc(O)c12` [QUERCETIN], the AC50 in experiment [1] was over 30 µM; on Histamine H2 receptor it was over 10 µM; in [2] it was 19.4 µM; in experiment [3] it was over 30 µM; in experiment [4], over 10 µM.

In turn, `CC(CN(C)C)C(C)(O)Cc1ccc(Cl)cc1` (centres undefined) [CLOBUTINOL] returned an AC50 at Histamine H1 receptor of over 30 µM.

Compound `C=CCN1CCc2nc(N)sc2CC1` [TALIPEXOLE] returned an AC50 in experiment [4] of 0.98 µM.

Regarding `CCc1nc(N)nc(N)c1-c1ccc(Cl)cc1` [PYRIMETHAMINE], the AC50 in [2] and in experiment [4] was over 10 µM in each case.

`NS(=O)(=O)c1cc2c(cc1Cl)N=C(CSCc1ccccc1)NS2(=O)=O` [BENZTHIAZIDE] registered an AC50 in experiment [4] of 2.48 µM.

Turning to `CCOC(=O)C(C)(C)Oc1ccc(Cl)cc1` [CLOFIBRATE], the AC50 in [1], in experiment [3] and in experiment [5] was over 30 µM in each case.

Take `CCC(=O)O[C@](Cc1ccccc1)(c1ccccc1)[C@H](C)CN(C)C` [PROPOXYPHENE]: the AC50 was over 30 µM in experiment [1]; 4.95 µM at Histamine H2 receptor; over 10 µM in experiment [2]; over 30 µM in experiment [3]; over 10 µM on Substance-P receptor; over 10 µM in experiment [4]. Also, the AC50 in experiment [6] is over 10 µM.

In turn, `O=C(NCCO[N+](=O)[O-])c1cccnc1` [NICORANDIL] gave an AC50 at Histamine H1 receptor of over 30 µM.

`Cc1cc(=O)n(-c2ccccc2)n1C` [ANTIPYRINE] returned an AC50 in [4] of over 10 µM.

Consider `O=C1Nc2ccc(Cl)cc2C(c2ccccc2Cl)=NC1O` (centres undefined) [LORAZEPAM], for which the AC50 is over 30 µM in experiment [1]; over 10 µM on Histamine H2 receptor; over 10 µM in experiment [2]; over 30 µM in experiment [3]; over 10 µM at Substance-P receptor; over 10 µM in experiment [4]. In addition, the AC50 in experiment [6] is over 10 µM.

In the case of `CO/N=C(\C(=O)N[C@@H]1C(=O)N2C(C(=O)O)=C(CSc3nc(=O)c(=O)[nH]n3C)CS[C@H]12)c1csc(N)n1` [CEFTRIAXONE], the concentration at half-maximal activity (AC50) in experiment [7] was over 50 µM; in experiment [5], over 30 µM.

Regarding `CCCCCCCC(=O)CC[C@@H]1[C@@H](C/C=C\CCCC(=O)OC(C)C)[C@@H](O)C[C@H]1O` [UNOPROSTONE ISOPROPYL], the AC50 in experiment [7] is over 50 µM.

`Cc1ccnc2c1NC(=O)c1cccnc1N2C1CC1` [NEVIRAPINE]: the AC50 is over 10 µM in [8]; over 10 µM on D(1B) dopamine receptor; over 30 µM in [1]; over 10 µM on Histamine H2 receptor; over 10 µM in experiment [2]; over 30 µM in experiment [3]. The AC50 (in experiment [9]; on Substance-P receptor; in experiment [4]; in experiment [6]) was over 10 µM throughout.

`C[N+]12CCC(CC1)C(OC(=O)C(O)(c1ccccc1)c1ccccc1)C2` (centres undefined): the AC50 in experiment [8] worked out at 0.0047 µM.

For the compound `Fc1ccc([C@@H]2CCNC[C@H]2COc2ccc3c(c2)OCO3)cc1` [PAROXETINE], the AC50 is over 50 µM in experiment [7]; 3.47 µM in experiment [8]; over 10 µM at D(1B) dopamine receptor; over 30 µM in experiment [1]; 11.9 µM in [2]; over 30 µM in experiment [3]. For the same compound, the AC50 in [9] was over 10 µM.

For the compound `O=c1[nH]c2ccccc2n1CCCN1CCN(C(c2ccccc2)c2ccccc2)CC1` [OXATOMIDE], half-maximal activity at Histamine H1 receptor (AC50) was put at 0.69 µM.

As to `CC(C)NC[C@H](O)COc1ccc(CC(N)=O)cc1` [ESATENOLOL], the AC50 in [1] is over 30 µM; at Histamine H2 receptor it was over 10 µM; in experiment [3], over 30 µM; on Substance-P receptor, over 10 µM; in [4], over 10 µM; in experiment [6], over 10 µM.

As for `NNC(=O)c1ccncc1` [ISONIAZID], the AC50 in experiment [1] was over 30 µM; on Histamine H2 receptor, over 10 µM; in experiment [2], over 10 µM; in experiment [3] it was over 30 µM; on Substance-P receptor, over 10 µM; in experiment [4], over 10 µM. In [6], this compound displayed an AC50 of over 10 µM.

`CCN1CCCC1CNC(=O)c1cc(S(=O)(=O)CC)ccc1OC` (centres undefined) [SULTOPRIDE] displayed an AC50 at Histamine H1 receptor of over 30 µM.

Consider `CCOC(=O)[C@@H](N)Cc1ccc(-c2cc(O[C@H](c3ccc(Cl)cc3-n3ccc(C)n3)C(F)(F)F)nc(N)n2)cc1` [TELOTRISTAT ETHYL], for which, in experiment [5], the AC50 is over 30 µM.

In the case of `COc1cc(N)c(Cl)cc1C(=O)NC1CCN(CCCOc2ccc(F)cc2)CC1OC` (centres undefined) [CISAPRIDE], the concentration at half-maximal activity (AC50) is over 50 µM in [7], over 30 µM in experiment [1], over 10 µM at Histamine H2 receptor and over 30 µM in [3].

In the case of `COc1cc2[nH]c(C)c(CCN3CCN(c4ccccc4)CC3)c2cc1OC` [OXYPERTINE], at Histamine H1 receptor, the activity was half-maximal at 0.645 µM (AC50).

Compound `CO/N=C(\C(=O)N[C@@H]1C(=O)N2C(C(=O)O)=CCS[C@H]12)c1csc(N)n1` [CEFTIZOXIME] gave an AC50 in [5] of over 30 µM.

As to `CCCCOc1ccc(C(=O)CCN2CCCCC2)cc1` [DYCLONINE], the AC50 in experiment [8] is 13.4 µM; on D(1B) dopamine receptor it was over 10 µM; in experiment [1] it was over 30 µM; on Histamine H1 receptor, over 30 µM; at Histamine H2 receptor, 3.13 µM; in experiment [2], over 10 µM. For the same compound, the AC50 in experiment [3] was over 30 µM; in experiment [9] it was over 10 µM; at Substance-P receptor, over 10 µM; in experiment [4], over 10 µM; in experiment [6], over 10 µM.

As usually defined, the AC50 is the concentration at which the activity in the assay is half-maximal.
